A word on the LD50: it is the dose at which mortality reaches 50%. Low values mean a more toxic substance, high ones a less toxic substance.

The subject of one data set is Meth-A cells. Description: Cytotoxicity in vitro (MTT assay, 3 days incubation). The class given is cell-based, murine. To be noted: Mus musculus, 72 h, read-out: 50% inhibition concentration (IC50). The protocol: The cytotoxic effect of each compound of the present invention in vitro was evaluated in the following manner. Dulbecco's modified MEM medium containing 10% (v/v) of fetal calf serum was used as a medium while Meth-A solid tumor was used as a tumor. The cytotoxic effect of each compound on this tumor was examined. Meth-A cells, which had been subcultured in a carbon dioxide gas incubator, were suspended in the above-mentioned medium so as to give a density of 5×10^4 cells/ml. 135 μl portions of the suspension thus obtained were poured into 96-well microtiter plates. Each test compound was dissolved in a small amount of DMF and diluted with Dulbecco's modified MEM medium to a predetermined concentration. 15 μl portions of test compound solutions at various concentrations were added thereto and then incubated in a carbon dioxide gas incubator for 3 days. After the completion of the incubation, the 50% inhibition concentration (IC50) was determined by the MTT assay method ["Igaku no Ayumi", vol. 128, 733-735 (1984)].

A further data set deals with Meth-A solid tumor. The experiment in a line: Inhibition of tumor growth in vivo (Meth-A solid tumor, Balb/c mouse). Also noted: species or system murine (female Balb/c mouse). To be noted: intraperitoneal, once a day for 4 days; for Tumor weight: tumor weighed two weeks after transplantation, mean ± standard deviation; for Inhibition of tumor growth: two weeks after transplantation, versus control. The protocol: The inhibition of tumor growth by the compounds of the present invention in vivo were evaluated in the following manner. 10^6 cells of Meth-A murine tumor cells were transplanted to the dorsal subcutaneous part of a female Balb/c mouse aged 6 weeks. On the next day of the transplantation, a test compound at each concentrations was intraperitoneally administered to the animal. The compound was suspended in a 1% solution of carboxymethyl cellulose (CMC) and thoroughly mixed ultrasonically. Alternately, it was thoroughly ground in a mortar and then suspended in a CMC solution. Thus a sample for injection was prepared. The test compound was administered once a day for 4 days continuously. To a control group, a 1% solution of CMC was administered once a day for 4 days continuously. Two weeks after the transplantation, the dorsal tumor was taken out and weighed to thereby determine the inhibition of tumor growth.

Data set [1] is described as follows: Acute toxicity, intraperitoneal. To be noted: mouse, in vivo, ip, female Balb/c mice aged 7 weeks.
A further data set deals with Ehrich ascites tumor. To be noted: cited from earlier work.
In data set [2] the test system is conversion of arachidonic acid into prostaglandin H2. Conditions: N. Kitahara et al., J. Antibiotics, 34, 1556-1561 (1981); cited from earlier work.

In brackets after ≈: the same amount, converted by molar mass.

`[C-]#[N+]C(=Cc1ccc(OC)cc1)C(=Cc1ccc(OCc2ccc(C)cc2)cc1)[N+]#[C-]` [Compound No. 7, 1-[4'-(4"-toluyl)methyloxyphenyl]-4-(4'-methoxyphenyl)-2,3-diisocyano-1,3-butadiene]: the IC50 in the data set with Meth-A cells amounted to 1.8 µg/mL (≈ 4.43 µM). Moreover, in the data set with Meth-A solid tumor (30 mg/kg/day), the Tumor weight came to 0.60 ± 0.20 g and the “Inhibition of tumor growth” value worked out at 68.4%.
As for `[C-]#[N+]C(=Cc1ccc(OC)cc1)C(=Cc1ccc(OCc2ccncc2)cc1)[N+]#[C-]` [Compound No. 5, 1-[4'-(4"-pyridyl)methyloxyphenyl]-4-(4'-methoxyphenyl)-2,3-diisocyano-1,3-butadiene], the IC50 in the data set on Meth-A cells came out at 0.7 µg/mL (≈ 1.78 µM).
Regarding `[C-]#[N+]C(=Cc1ccc(OC)cc1)C(=Cc1ccc(OCc2ccccc2)cc1)[N+]#[C-]` [Compound No. 2, 1-(4'-benzyloxyphenyl)-4-(4'-methoxyphenyl)-2,3-diisocyano-1,3-butadiene], in the data set with Meth-A cells, the IC50 was 0.7 µg/mL (≈ 1.78 µM). In the data set with Meth-A solid tumor (30 mg/kg/day), the Tumor weight was 0.22 ± 0.04 g and the “Inhibition of tumor growth” value stood at 67.6%.
In the case of `[C-]#[N+]C(=Cc1ccc(OC)cc1)C(=Cc1ccc(OCc2ccccn2)cc1)[N+]#[C-]` [Compound No. 6, 1-[4'-(2"-pyridyl)methyloxyphenyl]-4-(4'-methoxyphenyl)-2,3-diisocyano-1,3-butadiene], the IC50 in the data set with Meth-A cells worked out at 0.24 µg/mL (≈ 0.61 µM). Moreover, in data set [1], the LD50 is over 120 mg/kg.
As for `[C-]#[N+]C(=Cc1ccc(OC)cc1)C(=Cc1ccc(OCCCCCC)cc1)[N+]#[C-]` [Compound No. 4, 1-(4'-n-hexyloxyphenyl)-4-(4'-methoxyphenyl)-2,3-diisocyano-1,3-butadiene], in the data set with Meth-A solid tumor (30 mg/kg/day), the Tumor weight was determined as 0.27 ± 0.20 g and the “Inhibition of tumor growth” value came to 71.9%.
For `[C-]#[N+]C(=Cc1ccc(OC)cc1)C(=Cc1ccc(OCCF)cc1)[N+]#[C-]` [Compound No. 3, 1-[4'-(2"-fluoroethyl)oxyphenyl]-4-(4'-methoxyphenyl)-2,3-diisocyano-1,3-butadiene], in the data set with Meth-A cells, the IC50 stood at 1.5 µg/mL (≈ 4.31 µM). Also, the 50% lethal dose (LD50) in data set [1] is over 120 mg/kg.
As for `[C-]#[N+]C(=Cc1ccc(OC)cc1)C(=Cc1ccc(OC(=O)c2ccccc2)cc1)[N+]#[C-]` [Compound No. 8, 1-(4'-benzoyloxyphenyl)-4-(4'-methoxyphenyl)-2,3-diisocyano-1,3-butadiene], in the data set with Meth-A cells, the IC50 was found to be 1.7 µg/mL (≈ 4.18 µM). Also, the LD50 in data set [1] was over 300 mg/kg. For the same compound, in the data set on Meth-A solid tumor (30 mg/kg/day), the Tumor weight was 1.40 ± 0.30 g and the “Inhibition of tumor growth” value is given as 26.3%.
With `[C-]#[N+]C(=Cc1ccc(O)cc1)C(=Cc1ccc(OC)cc1)[N+]#[C-]` [xanthocillin X monomethyl ether, 1-(4'-hydroxyphenyl)-2,3-diisocyano-4-(4'-methoxyphenyl)-1,3-butadiene], in the data set with Ehrich ascites tumor (during administration), the “proliferation of Ehrich ascites tumor” value is “would suppress the proliferation of Ehrich ascites tumor”. The “proliferation of cancer cells after stopping the administration” value in the data set on Ehrich ascites tumor (immediately after stopping the administration) is recorded as “the cancer cells would proliferate again immediately after stopping the administration of this compound”. For the same compound, the “inhibition of biosynthesis of prostaglandin or thromboxane” value in data set [2] was “would inhibit the biosynthesis of prostaglandin or thromboxane”.
In the case of `[C-]#[N+]C(=Cc1ccc(OC)cc1)C(=Cc1ccc(OCc2ccc(Cl)cc2)cc1)[N+]#[C-]` [Compound No. 9, 1-[4'-(4"-chlorophenyl)methyloxyphenyl]-4-(4'-methoxy-phenyl)-2,3-diisocyano-1,3-butadiene], the IC50 in the data set with Meth-A cells came out at 1.8 µg/mL (≈ 4.22 µM). This compound had a median lethal dose (LD50) in data set [1] of over 300 mg/kg. In the data set with Meth-A solid tumor (30 mg/kg/day), the Tumor weight is 0.60 ± 0.50 g and the “Inhibition of tumor growth” value was 68.4%.
On to `[C-]#[N+]C(=Cc1ccc(OC)cc1)C(=Cc1ccc(OCC(=O)OCC)cc1)[N+]#[C-]` [Compound No. 1], for which, in the data set on Meth-A cells, the IC50 was 0.64 µg/mL (≈ 1.65 µM). In data set [1], the LD50 stood at 120 mg/kg. In the data set on Meth-A solid tumor (10 mg/kg/day), the Tumor weight worked out at 0.39 ± 0.08 g and the “Inhibition of tumor growth” value is 67.5%.

These data come from patent US5210097A, “Xanthocillin X monomethyl ether derivative and antitumor agent containing the same” (Meiji Seika Kaisha Ltd., priority 1989, dated 1993).
